Experimental data reported in ChEMBL document CHEMBL2094269, “WEHI/Eskitis Trypanosoma b. brucei screening data”.
Where “and” joins values, the source holds several entries; their conditions need not be identical. Equal values may be shown once.

Columns and labels:
[1] = DNDI: Cytotoxicity against human MRC-5 lung fibroblast cells.; conditions: IC50
[2] = system: Trypanosoma brucei brucei; test: microbe, parasite or virus in culture; type: functional, organism-based, STIB 795
Description: DNDI: Inhibition of Human African Trypanosomiasis (HAT), STIB 795, in vitro

Row | IC50 ([2]; Trypanosoma brucei, STIB 795) | IC50 [2] | SMILES | IC50 [1]
1 | 4.92 µM |  | Cc1cccc(C)c1C(O)(CC(O)CNC(C)C)c1c(C)cccc1C (stereo not drawn) | > 41.7 µM
2 | 4.55 µM |  | COC(=O)c1c(SCC(=O)Nc2cccc(OC)c2)[nH]c2ccccc2c1=O | > 20.8 µM
3 | 0.458 µM |  | CN(C)c1ccc(/C=C/c2cc[n+](C)cc2)cc1 | > 20.8 µM
4 | 4.78 µM |  | NS(=O)(=O)c1ccc(/N=N/c2ccc(O)c3ncccc23)cc1 | > 20.8 µM
5 | 2.66 µM |  | N/C(=N\OC(=O)c1ccccc1Br)c1ccccc1 | > 20.8 µM
6 | 4.87 µM |  | Cc1cc(NCCN2CCOCC2)c2ccc3ccccc3c2n1 | > 20.8 µM
7 | 4.74 µM |  | COc1ccccc1C(CCNC(C)c1ccccc1)C1CCOC(C)(C)C1 (stereo not drawn) | > 41.7 µM
8 | 5.33 µM |  | CC(C)CC(=O)NC(=C(Cl)Cl)S(=O)(=O)c1ccccc1 | > 4.17 µM
9 | 5.13 µM |  | CCc1ccccc1-n1c(=O)oc2ccc(Cl)cc2c1=O | > 4.17 µM
10 | 1.58 µM |  | CCN(CC)CCn1nc2c3c(cccc3c1=O)-c1ccccc1-2 | 1.46 µM
11 | 0.104 µM |  | COc1ccc(C(=O)O/N=C(\N)Cc2ccc(Cl)cc2)c(OC)c1 | > 20.8 µM
12 | 4.93 µM |  | Cc1cccc(C)c1C(OCC1CN(C(C)C)C(C)(C)O1)c1c(C)cccc1C (stereo not drawn) | > 20.8 µM
13 | 5.81 µM | 4.88 µM | O=C(NCCc1nc(-c2ccccc2)cs1)C1(c2ccccc2)CC1 | > 41.7 µM
14 | 0.52 µM |  | Cn1c2ccccc2c2nnc(N/N=C/c3ccccn3)nc21 | > 1.04 µM
15 | 5.06 µM |  | CN(CCCNC(=O)c1n[nH]c2c1COc1ccccc1-2)C1CCCCC1 | > 20.8 µM
16 | 0.49 µM |  | CC(C)(C)c1ccc(/C=N/n2cnnc2)cc1 | > 41.7 µM
17 | 0.354 µM |  | CN(C)c1ccc(/C=C\C=C\c2ccc[n+](C)c2)cc1 | > 20.8 µM
18 | 5.41 µM | 5.36 µM | CC(=O)NC1=C(N2CCN(C(=O)c3ccco3)CC2)C(=O)c2ccccc2C1=O | > 41.7 µM
19 | 5.41 µM |  | CC[n+]1c(/C=C2\Sc3cc(NC(C)=O)ccc3N2C)ccc2ccccc21 | > 41.7 µM
20 | ≤ 2.64 µM |  | O=C(O)c1n[nH]c2c1CCCCCC2 | > 4.17 µM
21 | 4.45 µM |  | COc1cc(C(=O)N/N=C(/C)c2ccccc2O)cc(OC)c1OC | > 4.17 µM
22 | 5.5 µM |  | CCOC(=O)C(=Cc1cc(=O)c(OC)co1)C(=O)OCC | > 20.8 µM
23 | 2.58 µM |  | CC(C)Nc1ccc(Nc2ccnc3cc4ccccc4cc23)cc1 | > 41.7 µM

Row | IC50 ([2]; Trypanosoma brucei, STIB 795) | IC50 [2] | SMILES | IC50 [1]
24 | 0.239 µM |  | CCN1/C(=C/C=C/C2=[N+](C)c3ccc(C)cc3C2(C)C)C=Cc2ccccc21 | > 4.17 µM
25 | 5.24 µM |  | Cc1cc(C(=O)N/N=C/c2c(O)ccc3ccccc23)c2ccccc2n1 | > 4.17 µM
26 | 3.42 µM |  | CC(C)NCC(O)CNc1cccc2c1C(=O)c1ccccc1C2=O (stereo not drawn) | > 4.17 µM
27 | 0.791 µM | 0.756 µM | Cc1cc(-c2ccco2)c(C#N)c(SCC(=O)c2ccc(O)c(O)c2)n1 | > 41.7 µM
28 | 0.038 µM |  | CN(C)c1ccc(/C=C/c2cc[n+](C)c3ccccc23)cc1 | > 2.08 µM
29 | 4.32 µM |  | Oc1c(Cl)cc(CN2CCCC2)c2cccnc12 | > 4.17 µM
30 |  | 2.37 µM and > 10.4 µM | Oc1c(C(Nc2nccs2)c2ccc(F)cc2)ccc2cccnc12 (stereo not drawn) | > 20.8 µM
31 | 5.09 µM |  | Cc1ccc(O)c(NN=C2C(=O)CC(C)(C)CC2=O)c1 | > 4.17 µM
32 | 2.15 µM |  | Cc1[nH]c2ccccc2c1/C=C1\SC(=N)N(c2nccs2)C1=O | > 20.8 µM
33 | 5.84 µM |  | CCCCC(=O)NC(c1ccc(N(C)C)cc1)c1ccc2cccnc2c1O (stereo not drawn) | > 20.8 µM
34 | 0.748 µM |  | N=C(NOC(=O)N1CCOCC1)c1ccc(Br)cc1 | > 20.8 µM
35 | 1.61 µM |  | COc1ccc(C(=O)O/N=C(\N)Cc2cccs2)cc1OC | > 20.8 µM
36 | 5.38 µM |  | Cc1ccc(OCCCCCN2CCNCC2)c(C)c1 | > 41.7 µM
37 | 0.846 µM |  | CCOC(=O)c1c(CN2CCOCC2)oc2c1C(=O)C(=O)c1ccccc1-2 | > 20.8 µM
38 | 6.25 µM | 6.05 µM | Cc1nnc(-c2ccccc2)c(=O)n1/N=C/c1c(O)ccc2ccccc12 | > 4.17 µM
39 | 0.927 µM |  | CCOC(=O)c1nc[nH]c1/N=N/c1ccc(O)c2ccccc12 | 3.83 µM
40 | 3.67 µM |  | COc1ccc2c(-c3ccccc3)cc(NCCCN(C)C)nc2c1 | > 20.8 µM
41 | 2.61 µM |  | CN1CCN(C2Cc3ccc(F)cc3Sc3ccc(O)cc32)CC1 (stereo not drawn) | > 41.7 µM
42 | 6.08 µM | 7.85 µM | CCOC(=O)c1ccc(NC(=O)Cn2c(C(F)(F)F)nc3ccccc32)cc1 | > 41.7 µM
43 | 4.67 µM |  | CC(CON1C(N)=NC(N)=NC1(C)C)Cc1cc(Cl)ccc1Cl (stereo not drawn) | > 20.8 µM
44 | < 0.004 µM |  | O=C(N/N=C/c1ccc(-c2ccccc2Cl)o1)c1ccccc1 | > 41.7 µM
45 | 2.32 µM |  | O/N=C1C=C/C(=N\O)c2ncccc2/1 | 4.89 µM
46 | 0.536 µM |  | CC[n+]1c(/C=C/c2ccc(N(C)C)cc2)ccn1-c1ccccc1 | > 20.8 µM

Row | IC50 ([2]; Trypanosoma brucei, STIB 795) | IC50 [2] | SMILES | IC50 [1]
47 | 3.79 µM |  | C=CCn1c(-c2ccccc2Cl)nn(C2CCC3OCC2O3)c1=S (stereo not drawn) | > 20.8 µM
48 | < 0.1 µM |  | CC1(C)CC(=O)C/C(=N/NC(=O)c2cc3ccccc3cc2O)C1 | > 41.7 µM
49 | < 0.04 µM |  | Cc1cc(/C=N/n2cnnc2)c(C)n1-c1cccc(C(F)(F)F)c1 | > 41.7 µM
50 | 5.36 µM |  | Oc1cccc2ccc(CNC3CC3)nc12 | > 20.8 µM
51 | 2.98 µM |  | COc1ccc(/C(N)=N/OC(=O)N2CCOCC2)cc1OC | > 20.8 µM
52 | 3.38 µM |  | CCN(Cc1ccccc1)S(=O)(=O)c1ncn[nH]1 | > 41.7 µM
53 | 0.686 µM |  | COc1ccc(C(=O)O/N=C(\N)c2ccccc2Cl)cc1OC | > 20.8 µM
54 | 0.706 µM |  | CCN1C(=Cc2sc3ccc(Cl)cc3[n+]2CC)C=Cc2cc(OC)ccc21 | > 4.17 µM
55 | 1.28 µM |  | CN(C)CCOc1ccccc1C1NCCc2c1[nH]c1ccccc21 (stereo not drawn) | > 20.8 µM
56 | 4.26 µM |  | Cc1ncc(CO)c(/C=N/NC(=O)c2ccc(C(C)(C)C)cc2)c1O | 6.25 µM
57 | 5.11 µM |  | CCOc1ccc(N(C(C)=O)C2=C(N(C)C)C(=O)c3ccccc3C2=O)cc1 | > 4.17 µM
58 | 0.662 µM |  | CCCOc1cccc(C(=O)Nc2cccc(-c3nc4ncccc4o3)c2C)c1 | > 4.17 µM
59 | 0.477 µM |  | CN1/C(=C/c2cccc[n+]2C)Sc2ccccc21 | > 20.8 µM
60 | 5.51 µM |  | COC(=O)c1ccc(C2N=C(c3cccs3)CC(c3ccccc3O)N2)cc1 (stereo not drawn) | > 41.7 µM
61 | 5.11 µM |  | CN1CCN(c2nc(Nc3ccc(F)cc3)nc(Nc3ccc(F)cc3)n2)CC1 | > 41.7 µM
62 | 5.32 µM | 5.4 µM | CC1CCC2C(=O)N(c3ccc(Cc4ccncc4)cc3)C(=O)C2C1 (stereo not drawn) | > 41.7 µM
63 | 5.09 µM |  | O=S1(=O)CCC(N2COc3c(cc(Cl)c4cccnc34)C2)C1 (stereo not drawn) | > 4.17 µM
64 | 4.6 µM |  | O=C1CC(n2nnn(-c3ccccc3Cl)c2=S)C2COC1O2 (stereo not drawn) | > 41.7 µM
65 | 0.03 µM |  | O=C1/C(=C/c2ccncc2)CCC/C1=C\c1ccncc1 | 1.94 µM
66 | 5.66 µM |  | CCOc1ccc(/C=N/NC(=N)N)cc1 | > 41.7 µM
67 | 2.16 µM |  | Cc1ccc2oc(SCC(=O)Nc3nc4ccccc4s3)nc2n1 | > 20.8 µM
68 | 5.79 µM |  | CC(Cc1ccco1)NC(=O)c1cccc(NC(=O)C2=CSCCO2)c1 (stereo not drawn) | > 41.7 µM
69 | 0.254 µM |  | O/N=C1\C=Cc2[nH]c(-c3ccccc3)cc2\C1=N/O | 0.721 µM

Row | IC50 ([2]; Trypanosoma brucei, STIB 795) | IC50 [2] | SMILES | IC50 [1]
70 | 4.73 µM |  | COc1cc(CNCCO)cc(Br)c1OCc1ccccc1 | > 41.7 µM
71 | 6.02 µM |  | N=C(Nc1nc(-c2ccccn2)cc2ccccc12)c1cccc(Cl)c1 | > 41.7 µM
72 | 3.39 µM | 4.51 µM | CC(C)(C)c1cc(C(c2ccccc2O)N2CCCCC2)cc(C(C)(C)C)c1O (stereo not drawn) | > 41.7 µM
73 | 5.25 µM | 5.23 µM | O=C1Nc2ccccc2/C1=C/c1ccccn1 | > 20.8 µM
74 | 0.718 µM |  | Oc1c(/N=N/c2ccccn2)ccc2ccccc12 | > 20.8 µM
75 | 0.831 µM |  | CCCCN1/C(=C/c2cc[n+](CC)c3ccccc23)C=Cc2cc(C)ccc21 | > 10.4 µM
76 | 5.24 µM |  | Cc1cccc(CN2CCN(Cc3c[nH]c4ccccc34)CC2)c1 | > 20.8 µM
77 | 4.99 µM |  | O=C1CC(n2nnn(-c3ccc(OC(F)(F)F)cc3)c2=S)C2COC1O2 (stereo not drawn) | > 41.7 µM
78 | 4.55 µM |  | CCCc1c(CC)c(=N)c2ccccc2n1C | > 41.7 µM
79 | 0.734 µM |  | CC(C)(C)c1ccc(OCCCCCCN2CCNCC2)cc1 | > 20.8 µM
80 | 3.04 µM |  | O=C(CN1CCN(c2ccc(Cl)cc2)CC1)c1ccc(O)c(O)c1 | > 41.7 µM
81 | 0.483 µM |  | C=CCN1C(=O)C(O)(CC(=O)c2ccco2)c2cc(Br)ccc21 (stereo not drawn) | > 41.7 µM
82 | 0.166 µM |  | CCN1CCO/C1=C\C=C\C1=[N+](CC)CCO1 | > 41.7 µM
83 | 5.05 µM |  | CC(O)CN1C(=O)c2ccc3c4c(ccc(c24)C1=O)C(=O)N(CC(C)O)C3=O (stereo not drawn) | > 41.7 µM
84 | 5.27 µM |  | Cn1ccnc1Sc1cnn(-c2ccccc2)c(=O)c1Cl | > 20.8 µM
85 | 0.895 µM |  | CCCCc1c(C)[nH]n(-c2nc3ccccc3[nH]2)c1=O | > 1.04 µM
86 | 4.54 µM |  | O=C(CC1(O)C(=O)Nc2ccc(Br)cc21)c1ccccc1F (stereo not drawn) | > 41.7 µM
87 | 5.62 µM |  | CC(C)(C)c1ccc(CN2CCCn3c2nc2ccccc23)cc1 | > 20.8 µM
88 | 5.48 µM | 5.31 µM | N=c1n(Cc2ccccc2)c2ccccc2n1CC(O)c1ccc(Cl)cc1 (stereo not drawn) | > 20.8 µM
89 | 0.516 µM |  | O=C(CC(Sc1cccc2cccnc12)c1ccc(F)cc1)c1cccs1 (stereo not drawn) | > 20.8 µM
90 | 3.73 µM |  | CC1=CC(C)(C)N=C(Nc2nc(C)c3cc(C)cc(C)c3n2)N1 | 5.93 µM

Row | SMILES | IC50 ([2]; Trypanosoma brucei, STIB 795) | IC50 [2] | IC50 [1]
91 | Cc1ccccc1C(O)(Cc1ccccc1)C1CN2CCC1CC2 (stereo not drawn) | 4.69 µM |  | > 4.17 µM
92 | COc1ccc(C2(CCNCc3ccc(Cl)cc3)CCOC(C)(C)C2)cc1 (stereo not drawn) | 7.61 µM |  | > 41.7 µM
